Measured values from article PMC6114103, “17-DMAG inhibits the multiplication of several Babesia species and Theileria equi on in vitro cultures, and Babesia microti in mice” (International Journal for Parasitology: Drugs and Drug …, 2018).

Key:
[1] = introduction, background statement; ref Jilani et al., 2013; cited from earlier work
[2] = test system: B. bigemina (Argentina strain); experiment: in vitro multiplication inhibition assay (SYBR Green I fluorescence, 96 h), single drugs and two-drug combinations; type: cell-based, Babesia bigemina; settings: for IC50: Babesia bigemina, B. bigemina, 96 h, triplicate, mean ± SD, read-out: IC50 on in vitro culture of parasites; for Selectivity index MDBK: ratio IC50 MDBK to IC50 B. bigemina; for Selectivity index NIH/3T3: ratio IC50 NIH/3T3 to IC50 B. bigemina
Procedure: Babesia parasite cultures were maintained using a microaerophilic stationary-phase culture system ([Levy and Ristic, 1980]; [Avarzed et al., 1997]; [Igarashi et al., 1998]). Briefly, bovine Babesia parasites were grown in bovine red blood cells (RBC) in the specific complete medium for each species. The medium for B. bovis (Texas strain) contained GIT medium supplemented with 10% bovine serum, while the medium for B. bigemina (Argentina strain) and B. divergens (Germany strain) was Medium 199 and RPMI 1640 medium, respectively, supplemented with 40% bovine serum ([Rizk et al., 2016]). B. caballi (USDA strain) was grown using equine RBC in GIT medium supplemented with 10% equine serum. T. equi (USDA strain) was grown in equine RBC in M199 medium supplemented with 40% equine serum and hypoxanthine (MP Biomedicals, USA) at a final concentration of 13.6 μg/ml. All of the media included 60 U/ml penicillin G, 60 μg/ml streptomycin, and 0.15 μg/ml amphotericin B (Sigma-Aldrich, USA). The cultures were incubated at 37 °C in a humidified chamber with an atmosphere of 5% CO2, 5% O2, and 90% N2.
The assays were conducted in accordance with the protocol described previously with modification ([Guswanto et al., 2014]). Briefly, the cultures of B. bovis, B. bigemina, B. divergens, B. caballi, and T. equi with a parasitemia of 8%, 3%, 10%, 4%, and 9%, respectively, were harvested and adjusted to 1% parasitemia with fresh RBC before the inhibition assay. The 60 inner wells of a 96-well plate were used in the assay, while the peripheral wells were filled with sterile distillate water to reduce evaporation during incubation. To each well in triplicate, 2.5 μl of infected RBC (5 μl for B. divergens, B. caballi, and T. equi) was added and mixed with a culture medium containing the drug to a total volume of 100 μl. The stock solution of 17-DMAG, DA, and AV was dissolved in a culture medium at various concentrations using two-fold dilution. A culture medium containing DMSO at a final concentration of 0.2% was added to the well with infected RBC as a positive control and to the well with uninfected RBC as a negative control. Furthermore, a drug combination assay was conducted in parallel with the single drug assay at the constant ratio in accordance with the Chou–Talalay method ([Chou, 2006]). In the same plate with a single drug inhibition assay, a two-drug combination (DA+17-DMAG, DA + AV, and 17-DMAG + AV) at concentrations of 0.25 x IC50, 0.5 x IC50, IC50, 2 x IC50, and 4 x IC50 was added to the well containing infected RBC in triplicate. The plate was incubated in a humidified incubator with 5% CO2, 5% O2, and 90% N2. After 96 h, 100 μl of a lysis buffer containing SYBR Green I was added to each well. The plate was wrapped with aluminum foil to avoid direct light exposure and incubated at room temperature. After incubation for 6 h, fluorescence values were measured using a fluorescence spectrophotometer (Fluoroskan Ascent, Thermo Fisher Scientific, USA) with the excitation and emission wavelength at 485 nm and 518 nm, respectively. The fluorescence data were subtracted from the negative control and used to calculate the IC50.
The IC50 of 17-DMAG, DA, and AV was calculated from the percentage of inhibition on the in vitro multiplication of all tested species using non-linear regression (curve fit), available in GraphPad Prism (GraphPad Software Inc., USA). Combination index (CI) values for the drug combination were calculated using CompuSyn software ([Chou, 2006]). Since the chemotherapy effect is preferable at the highest inhibition, the degree of synergism was determined as the weighted average of CI values using a formula ((1 x IC50) + (2 x IC75) + (3 x IC90) + (4 x IC95))/10 ([Chou, 2006]). The differences among groups regarding the parasitemia, hematology profiles, and body weight in the B. microti–infected mouse model were analyzed using Student's t-test, available in GraphPad Prism software.

[3] = test system: B. microti (Munich strain); experiment: inhibition assay using a B. microti-infected mouse model; type: in vivo, BALB/c mice; settings: 5 consecutive days; for day p.i. on which parasite no longer detected in blood smears via microscopy (parasite clearance): 17-DMAG + DA 15 + 15, 17-DMAG + AV 15 + 10, DA + AV 15 + 10 mg/kg BW
Procedure: B. microti (Munich strain) was recovered from -80 °C stock in two 6-week female Balb/c mice (Clea, Japan). The parasitemia was monitored every 2 days. […] The inhibitory effect of 17-DMAG was also determined using a B. microti mouse model according to the previous protocol ([Goo et al., 2010]). Briefly, 35 female BALB/c mice aged 8 weeks received an intraperitoneal injection of 1 × 10^7 of B. microti-infected RBC and were divided into seven groups. Another group consisting of five mice was kept uninfected and untreated as a control. The multiplication of B. microti was observed from blood smears after staining with Giemsa using a light microscope. The drug treatment was initiated to all infected mice on day five, after the parasitemia reached approximately 1%, and continue to the total of five consecutive days. Group 1 was treated with 4% DMSO in saline water as a control intraperitoneally. […] The parasitemia was estimated from Giemsa-stained blood smears using microscopy in approximately 5000 RBC. Furthermore, the hematology profiles including RBC, hemoglobin, and hematocrit were measured from 10 μl of mouse blood using an automatic hematology analyzer (Celltac α MEK-6450, Nihon Kohden, Tokyo, Japan). The rate of parasitemia, hematology profiles, and mouse body weight was monitored for 60 days. The experiment was repeated once so each group contained 10 mice. […] Combination index (CI) values for the drug combination were calculated using CompuSyn software ([Chou, 2006]). […] The differences among groups regarding the parasitemia, hematology profiles, and body weight in the B. microti-infected mouse model were analyzed using Student's t-test, available in GraphPad Prism software. The difference was considered significant if P < 0.05.

T. equi = experiment: effect of 17-DMAG on host erythrocytes: parasite subculture in pretreated equine RBC; type: cell-based, Theileria equi; settings: equine RBC incubated with 1 μM for 3 h, parasitemia 4 days
Procedure: Prior to the subculture of parasites, bovine and equine RBC were incubated with 1 μM of 17-DMAG for 3 h. The RBC were washed three times with PBS and mixed with B. bovis and T. equi parasitized RBC to obtain 1% parasitemia (infected RBC). Subsequently, 100 μl of infected RBC was added to 900 μl of complete medium in a 24-well plate. The untreated erythrocytes were used as a control. The parasitemia was monitored daily via microscopy observation of a Giemsa-stained blood smear for 4 days. Furthermore, the effect of 17-DMAG on mice was evaluated using 8-week-old BALB/c mice. Groups 1 and 2, consisting of three mice each, received intraperitoneal injections of 17-DMAG at a concentration of 15 and 30 mg/kg BW, respectively, for 5 days. One group (three mice) remained as an untreated control.

[4] = 17-DMAG 30, DA 25, AV 20 mg/kg BW

Row | Compound | solubility [1] | IC50 [2] | Selectivity index MDBK [2] | Selectivity index NIH/3T3 [2] | peak parasitemia ([3]; 17-DMAG 30 mg/kg BW intraperitoneal, peak on day 10 p.i., 10 mice) | day p.i. on which parasite no longer detected in blood smears via microscopy (parasite clearance) [3, 4] | inhibition of the multiplication of B. microti in mice ([3]; 17-DMAG 30, DA 25, AV 20 mg/kg BW, combinations 17-DMAG 15 with DA 15 or AV 10 mg/kg BW) | multiplication of T. equi in 17-DMAG-treated RBC versus normal RBC (T. equi)
1 | CO[C@H]1/C=C\C=C(/C)C(=O)NC2=CC(=O)C(NCCN(C)C)=C(C[C@@H](C)C[C@H](OC)[C@H](O)[C@@H](C)/C=C(\C)[C@@H]1OC(N)=O)C2=O [17-DMAG, 17-dimethylaminoethylamino-17-demethoxygeldanamycin] | water soluble | 62.4 ± 1.9 nM | 141 | 248 | 4.7 ± 2.0% | 36 day p.i. | effectively inhibited | did not significantly differ
2 | O=C1C(O)=C([C@H]2CC[C@H](c3ccc(Cl)cc3)CC2)C(=O)c2ccccc21 [AV, atovaquone] |  | 706 ± 38.7 nM | >57 | >57 |  | ≤ 28 day p.i. |  | 
